In patent US20240173333A1, “Treating Alagille Syndrome (ALGS)” (priority 2022, published 2024):
“Also recorded” adds a separate entry of the source. Read-outs that look alike come from different tables or passages of the source. Marks after values point to notes of the source that are not given here.

Tests used:
[1] = test system: patients with Alagille syndrome (ALGS); test: ASSERT: hepatic parameters, biochemical markers and markers of bile acid synthesis; assay type: in vivo, human
Source text: (§1) […] Additional secondary efficacy endpoints were as follows: • Change from baseline in pruritus to Month 6 (Weeks 21 to 24) as measured by the Albireo PRO instrument. • Percentage of patients achieving a clinically meaningful decrease in pruritus (pruritis responders) as measured by the ObsRO/PRO instruments. • Change from baseline through Week 24 in patient reported and observer reported itching and scratching severity scores, respectively, for the morning assessment and for the evening assessment; sleep parameters as measured with the Albireo ObsRO/PRO instruments (e.g., tiredness and number of awakenings); and PedsQL subdomain scores. • Assessment of Global Symptom Relief to from baseline to Weeks 4, 12, and 24 as measured by patient, caregiver, and clinician Global Impression of Symptoms GIS (PGIS, CaGIS, CGIS) items. • Change from baseline to Week 24 in xanthomatosis as assessed by the Clinician Xanthoma Scale; serum bile acid levels; serum ALT concentration; and serum AST concentration; gamma-glutamyl transferase concentration; total bilirubin concentration. • Change from baseline in biochemical markers and measures of bile acid synthesis (autotaxin, p-C4, only in patients >10 kg); and total cholesterol concentration.
Biochemical Markers and PK Samples. Blood samples for analysis of clinical chemistry were drawn during Screening Visits 1 and 2, as well as at randomization (Study Day 1), Week 4 to 24/EOT, and Safety Follow-up visits. As outlined in Table 1, total bilirubin, AST, ALT, and gamma glutamyl transferase assessments were included as part of the routine laboratory parameters. Blood samples for autotaxin and p-C4 were drawn at randomization (Study Day 1), Week 12, and Week 24/EOT, only for children with body weight >10 kg. Blood for odevixibat PK assessment was drawn at Week 4, Week 20, and EOT (only for children with body weight >10 kg). Samples were processed and transported to a laboratory per instructions in the laboratory manual.

[2] = test system: patients with Alagille syndrome (ALGS); test: ASSERT: PedsQL total and domain scores; assay type: in vivo, human
Source text: as §1
Scores range from 0 and 100, with higher scores indicating better functioning. *n=28 for LS mean change from baseline to week 24. ^†Analysis of change from baseline with odevixibat vs placebo based on ANCOVA model at each visit with baseline score as a covariate and treatment group and age category (<5 years, 5-7 years, 8-12 years, 13-18 years) as fixed effects. ANCOVA=analysis of covariance. LS=least squares. PedsQL=Paediatric Quality of Life Inventory.

[3] = test system: patients with Alagille syndrome (ALGS); test: ASSERT: fat-soluble vitamin levels, INR and related TEAEs; assay type: in vivo, human
Experimental: Vitamins A, D, E, and international normalized ratio (INR; surrogate for vitamin K) were measured throughout the study. Vitamins A, D, and E were measured at screening and randomization, week 12, and week 24. International normalized ratio (INR; surrogate for vitamin K) was measured at all visits. The following measures were determined: (i) percentage of patients with FSV insufficiency at baseline and week 24, and (ii) shifts from baseline to high or low post-baseline FSV values relative to normal ranges. Treatment-emergent adverse events (TEAEs) of FSV deficiency, TEAEs resulting from new or worsening FSV deficiency refractory to clinically recommended vitamin supplementation, and TEAEs represented any possible sequelae of FSV deficiency were evaluated.

[4] = test system: pediatric patient with genetic confirmation of ALGS
Source text: The ileal bile acid transporter (IBAT) is a regulator of the enterohepatic bile acid circulation (Karpen et al.). Given the central feature of cholestasis in ALGS and the role of IBAT in bile acid homeostasis, IBAT inhibitors may help alleviate symptoms of ALGS. The IBAT inhibitor odevixibat is indicated for treatment of pruritus in patients ≥3 months old with progressive familial intrahepatic cholestasis (PFIC), another pediatric cholestatic liver disease, in the US and for treatment of PFIC in patients aged ≥6 months in the European Union.
The patient was referred to specialist care […]. […] […], a liver biopsy was performed.
During this clinical course, the patient received UDCA (15 mg/kg body weight) and naltrexone (1 mg/kg/day), treatments that were pursued according to German treatment guidelines and following discussions among the care team and with the patient's parents.

[5] = test system: patients with Alagille syndrome (ALGS); test: ASSERT: global impression of change (CGIC, CaGIC, PGIC) and exit survey; assay type: in vivo, human; settings: post hoc analysis; completion of study
[6] = baseline, before treatment, n=35
[7] = baseline, before treatment, patients >10 kg
[8] = week 24, 120 μg/kg/day, patients >10 kg

CCCCC1(CCCC)CN(c2ccccc2)c2cc(SC)c(OCC(=O)N[C@@H](C(=O)N[C@@H](CC)C(=O)O)c3ccc(O)cc3)cc2S(=O)(=O)N1 [odevixibat, 1,1-dioxo-3,3-dibutyl-5-phenyl-7-methylthio-8-(N-{(R)-α-[N-((S)-1-carboxypropyl)carbamoyl]-4-hydroxybenzyl}carbamoylmethoxy)-2,3,4,5-tetrahydro-1,2,5-benzothiadiazepine]
GGT, LS mean (SE) change from baseline to week 24 ([1]; 120 μg/kg/day, n=35): 100 (44) U/L | Serum ALT, LS mean (SE) change from baseline to week 24 ([1]; 120 μg/kg/day, n=35): 66 (14) U/L | Serum AST, LS mean (SE) change from baseline to week 24 ([1]; 120 μg/kg/day, n=35): 54 (15) U/L | Total bilirubin, LS mean (SE) change from baseline to week 24 ([1]; 120 μg/kg/day, n=35): 1 (3) μmol/L | Total cholesterol, LS mean (SE) change from baseline to week 24 ([1]; 120 μg/kg/day, n=35): −1 (1) mmol/L | Autotaxin, Mean (SD) change from baseline to week 24 ([1]; 120 μg/kg/day, patients >10 kg): −414 (439) ng/mL | C4, Mean (SD) change from baseline to week 24 ([1]; 120 μg/kg/day, patients >10 kg): 12 (12) ng/mL | GGT, Mean (SD) at baseline [1, 6]: 366 (211) U/L | Serum ALT, Mean (SD) at baseline [1, 6]: 186 (83) U/L | Serum AST, Mean (SD) at baseline [1, 6]: 170 (81) U/L | Total bilirubin, Mean (SD) at baseline [1, 6]: 52 (43) μmol/L | Total cholesterol, Mean (SD) at baseline [1, 6]: 8 (2) mmol/L | Autotaxin, Mean (SD) at baseline [1, 7]: 1846 (540) ng/mL | C4, Mean (SD) at baseline [1, 7]: 6 (6) ng/mL | patients with post-treatment changes in Total Bilirubin (≥3×BL) concurrently with ALT (≥2×BL) (Hy's Law / drug induced liver injury cases) ([1]; post-baseline, 24 weeks): No patient | GGT, Mean (SD) at week 24 ([1]; week 24, 120 μg/kg/day, n=35): 460 (270) U/L | Serum ALT, Mean (SD) at week 24 ([1]; week 24, 120 μg/kg/day, n=35): 245 (121) U/L | Serum AST, Mean (SD) at week 24 ([1]; week 24, 120 μg/kg/day, n=35): 217 (131) U/L | Total bilirubin, Mean (SD) at week 24 ([1]; week 24, 120 μg/kg/day, n=35): 53 (42) μmol/L | Total cholesterol, Mean (SD) at week 24 ([1]; week 24, 120 μg/kg/day, n=35): 7 (2) mmol/L | Autotaxin, Mean (SD) at week 24 [1, 8]: 1452 (440) ng/mL | C4, Mean (SD) at week 24 [1, 8]: 19 (13) ng/mL | PedsQL Emotional Functioning, Mean (SD) at baseline ([2]; baseline, n=30): 55.8 (17.8) | PedsQL Physical Functioning, Mean (SD) at baseline ([2]; baseline, n=30): 71.6 (21.4) | PedsQL School Functioning, Mean (SD) at baseline ([2]; baseline, n=30): 63.3 (22.9) | PedsQL Social Functioning, Mean (SD) at baseline ([2]; baseline, n=30): 78.5 (18.8) | PedsQL Total Score, Mean (SD) at baseline ([2]; baseline, n=30, score 0-100): 67.8 (16.3) | PedsQL Emotional Functioning, LS mean (SE) change from baseline to week 24 ([2]; n=28): 21.0 (3.3) | PedsQL Physical Functioning, LS mean (SE) change from baseline to week 24 ([2]; n=28): 14.2 (2.9) | PedsQL School Functioning, LS mean (SE) change from baseline to week 24 ([2]; n=28): 13.3 (3.0) | PedsQL Social Functioning, LS mean (SE) change from baseline to week 24 ([2]; n=28): 5.1 (3.2) | PedsQL Total Score, LS mean (SE) change from baseline to week 24 ([2]; n=28, score 0-100): 13.5 (2.5) | shifts to low levels of vitamin E in patients with normal or high baseline levels ([3]; 4/29): 14% | shifts to low vitamin D levels in patients with normal or high baseline levels ([3]; 8/16): 50% | shifts from low or normal INR at baseline to high INR (low vitamin K) ([3]; 12/30): 40% | TEAE related to FSV levels: decreased vitamin A ([3]; 24 weeks): 1 n | TEAE related to FSV levels: decreased vitamin E ([3]; 24 weeks): 1 n | TEAE related to FSV levels: increased INR ([3]; 24 weeks): 1 n | incidence of INR increased (possible sequela of FSV deficiency) ([3]; 24 weeks): 3% | incidence of haematoma (possible sequela of FSV deficiency) ([3]; 24 weeks): 9% | patients shifted to high INR based on the normal range ([3]; 24 weeks): 12 patients | patients who shifted to high post-baseline INR and had TEAEs of potential sequelae of vitamin K deficiency ([3]; 24 weeks): 2 n | patients with clinically meaningful INR shifts (INR >1.2) ([3]; 24 weeks): 6 patients | shifts to low vitamin D levels ([3]; 24 weeks): 8 patients | shifts to low vitamin E levels ([3]; 24 weeks): 4 patients | incidence of possible sequelae of fat-soluble vitamin deficiency ([3]; 24 weeks, n=35): 14% | patients with TEAEs related to FSV levels (any FSV deficiency-related TEAE) ([3]; 24 weeks, n=35): 9% | fat-soluble vitamin deficiency TEAE refractory to clinically recommended vitamin supplementation ([3]; 24 weeks, vitamin D deficiency): 1 patients | changes from baseline in mean vitamin (FSV) levels or INR ([3]; baseline to last assessment): No clinically meaningful changes; also recorded: no clinically relevant changes | Vitamin A, shifts to low ([3]; baseline to lowest post-baseline value): 0/34 | patients shifted to low levels of vitamin A ([3]; during the study): No patients | Any FSV deficiency-related TEAE ([3]; n=35): 3 (9)^a n (%) | Any potential sequelae events ([3]; n=35): 5 (14) n (%) | FSV deficiency-related TEAE: INR increased ([3]; n=35): 1 (3) n (%) | FSV deficiency-related TEAE: Vitamin A decreased ([3]; n=35): 1 (3) n (%) | FSV deficiency-related TEAE: Vitamin E decreased ([3]; n=35): 1 (3) n (%) | Potential sequelae: Coagulopathy ([3]; n=35): 1 (3) n (%) | Potential sequelae: Contusion ([3]; n=35): 1 (3) n (%) | Potential sequelae: Epistaxis ([3]; n=35): 0 n (%) | Potential sequelae: Hematemesis ([3]; n=35): 1 (3) n (%) | Potential sequelae: Hematoma ([3]; n=35): 3 (9) n (%) | Potential sequelae: INR increased ([3]; n=35): 1 (3) n (%) | FSV deficiency-related TEAE: Vitamin D deficiency ([3]; n=35, refractory to supplementation): 1 (3)^b n (%) | patients with FSV deficiency TEAE refractory to clinically recommended vitamin supplementation ([3]; of 35 patients): 3% | effect of dosage change on sBAs ([4]; 30 μg/kg/day, September to October 2021): associated with an increase in sBAs | drop in sBAs ([4]; Apr. 27, 2021 to May 31, 2021, 120 μg/kg/day started May 19, 2021): approximately 90% | sBAs after start of odevixibat ([4]; May 31, 2021, from 700 μmol/L on Apr. 27, 2021, 120 μg/kg/day): 69 µmol/L | bowel movements improved after ([4]; after starting odevixibat): 1 week | pruritus almost entirely disappeared within ([4]; after starting odevixibat): ≤ 2 weeks | pruritus stopped completely after ([4]; after starting odevixibat): 8 months | effect of dosage change on sBAs ([4]; back to 120 μg/kg/day in mid-December): corresponded with a drop in sBAs | adverse events ([4]; in vivo): did not experience any adverse events | sBA levels reached the normal range after ([4]; treatment duration): 8 months | caregivers reporting meaningful change in the patient since the start of treatment (exit survey) [5]: 78%
